According to patent publication US12534457B2, “Heteroaryl derivative compounds, and uses thereof” (Voronoi Inc., priority 2021, dated 2026):

Key:
[1] = system: Ba/F3 G719A (EGFR mutation); assay: Proliferation inhibitory activity, Ba/F3 cells expressing EGFR G719A; format: cell-based; conditions: Mus musculus, BaF3, 72 hours, CellTiter-Glo
Method: (§1) The following experiments were performed to evaluate the inhibitory activity of the compounds according to the present disclosure on Ba/F3 proliferation expressing EGFR C797S, L861Q, G719A, S768I, L718Q, and/or G724S mutations.
(§2) For Ba/F3 cells, RPMI-1640 containing 10% FBS and 5 ng/ml IL-3 (R&D Systems) was used. Transduced Ba/F3 cells were cultured after adding 1 μg/ml puromycin (Invitrogen) to the same medium.
(§3) At 24 hours before treatment with the compounds, 3000 to 5000 cells were aliquoted into each well of a white clear bottom 96 well plate (Corning). The compounds were diluted in dimethyl sulfoxide (3 times dilution, 12 concentrations in total), and injected in an amount of 1 μl so that the final concentration was 0.2 nM to 5 uM. For measurement of living cells, after 72 hours of compound treatment, the cells were stored at room temperature for 10 min using CellTiter-Glo luminescentcell-viability reagent (Promega), and then luminescence intensity was measured using a reader (SynergyNeo, Biotek). Each test was repeated three times. Result values were calculated as the cell growth rate (%) compared to the control. The graphs were created using GraphPad Prism version 8.3.0 program and the GI50 values were calculated.

[2] = system: Ba/F3 L861Q (EGFR mutation); assay: Proliferation inhibitory activity, Ba/F3 cells expressing EGFR L861Q; format: cell-based; conditions: Mus musculus, BaF3, 72 hours, CellTiter-Glo
Method: as §1, §2, §3

[3] = system: Ba/F3 cells expressing EGFR Del19/C797S (EGFR DC); assay: Proliferation inhibitory activity, Ba/F3 cells expressing EGFR Del19/C797S (CellTiter-Glo); format: cell-based; conditions: Mus musculus, BaF3, 72 hours of compound treatment
Method in brief: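 Viability after 72 h of compound exposure was measured by luminescence (CellTiter-Glo) in Ba/F3 lines transduced with mutant EGFR. Final concentrations spanned 0.2 nM–5 μM over 12 threefold steps. Growth relative to untreated control gave GI50 values; each test was run three times.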

[4] = system: Ba/F3 S768I (EGFR mutation); assay: Proliferation inhibitory activity, Ba/F3 cells expressing EGFR S768I; format: cell-based; conditions: Mus musculus, BaF3, 72 hours, CellTiter-Glo
Method: as §1, §2, §3

[5] = system: Ba/F3 cells expressing EGFR L858R/C797S (EGFR LC); assay: Proliferation inhibitory activity, Ba/F3 cells expressing EGFR L858R/C797S (CellTiter-Glo); format: cell-based; conditions: Mus musculus, BaF3, 72 hours of compound treatment
Method: as §1, §2, §3

[6] = biological target: T1, EGFR (d746-750/C797S) (Homo sapiens, UniProt P00533, C797S/DEL746-750); assay: EGFR-family mutant enzyme activity (Reaction Biology); format: biochemical
T1 construct: purchased Reaction Biology

[7] = system: Ba/F3 L718Q (EGFR mutation); assay: Proliferation inhibitory activity, Ba/F3 cells expressing EGFR L718Q; format: cell-based; conditions: Mus musculus, BaF3, 72 hours, CellTiter-Glo
Method: as §1, §2, §3

[8] = biological target: T2, ERBB2/HER2 (Homo sapiens, UniProt P04626); assay: EGFR-family mutant enzyme activity (Reaction Biology); format: biochemical
T2 construct: purchased Reaction Biology

[9] = biological target: T3, EGFR (G719C) (Homo sapiens, UniProt P00533, G719C); assay: as above; format: biochemical
T3 construct: purchased Reaction Biology

[10] = biological target: T4, EGFR (G719S) (Homo sapiens, UniProt P00533, G719S); assay: as above; format: biochemical
T4 construct: purchased Reaction Biology

[11] = biological target: T5, EGFR (L792F/L858R) (Homo sapiens, UniProt P00533, L792F/L858R); assay: as above; format: biochemical
T5 construct: purchased Reaction Biology

[12] = system: Ba/F3 G724S (EGFR mutation); assay: Proliferation inhibitory activity, Ba/F3 cells expressing EGFR G724S; format: cell-based; conditions: Mus musculus, BaF3, 72 hours, CellTiter-Glo
Method: as §1, §2, §3

[13] = biological target: T6, EGFR (L861Q) (Homo sapiens, UniProt P00533, L861Q); assay: EGFR-family mutant enzyme activity (Reaction Biology); format: biochemical
T6 construct: purchased Reaction Biology

[14] = biological target: T7, EGFR (L747S) (Homo sapiens, UniProt P00533, L747S); assay: as above; format: biochemical
T7 construct: purchased Reaction Biology

[15] = biological target: T8, EGFR (L718Q) (Homo sapiens, UniProt P00533, L718Q); assay: as above; format: biochemical
T8 construct: purchased Reaction Biology

[16] = biological target: T9, EGFR (G719D) (Homo sapiens, UniProt P00533, G719D); assay: as above; format: biochemical
T9 construct: purchased Reaction Biology

[17] = biological target: T10, EGFR (d746-750/T790M/C797S) (Homo sapiens, UniProt P00533, C797S/DEL746-750/T790M); assay: as above; format: biochemical
T10 construct: purchased Reaction Biology

[18] = biological target: T11, EGFR (L792F) (Homo sapiens, UniProt P00533, L792F); assay: as above; format: biochemical
T11 construct: purchased Reaction Biology

[19] = biological target: T12, EGFR (d746-750/C797A) (Homo sapiens, UniProt P00533, C797A/DEL746-750); assay: as above; format: biochemical
T12 construct: purchased Reaction Biology

[20] = biological target: T13, EGFR (D761Y) (Homo sapiens, UniProt P00533, D761Y); assay: as above; format: biochemical
T13 construct: purchased Reaction Biology

[21] = biological target: T14, ERBB4/HER4 (Homo sapiens, UniProt Q15303); assay: as above; format: biochemical
T14 construct: purchased Reaction Biology

[22] = biological target: T15, EGFR (d746-750) (Homo sapiens, UniProt P00533, DEL746-750); assay: as above; format: biochemical
T15 construct: purchased Reaction Biology

T1 sequence (P00533 with tags, fused parts or gaps DEL746-750/C797S limits assumed): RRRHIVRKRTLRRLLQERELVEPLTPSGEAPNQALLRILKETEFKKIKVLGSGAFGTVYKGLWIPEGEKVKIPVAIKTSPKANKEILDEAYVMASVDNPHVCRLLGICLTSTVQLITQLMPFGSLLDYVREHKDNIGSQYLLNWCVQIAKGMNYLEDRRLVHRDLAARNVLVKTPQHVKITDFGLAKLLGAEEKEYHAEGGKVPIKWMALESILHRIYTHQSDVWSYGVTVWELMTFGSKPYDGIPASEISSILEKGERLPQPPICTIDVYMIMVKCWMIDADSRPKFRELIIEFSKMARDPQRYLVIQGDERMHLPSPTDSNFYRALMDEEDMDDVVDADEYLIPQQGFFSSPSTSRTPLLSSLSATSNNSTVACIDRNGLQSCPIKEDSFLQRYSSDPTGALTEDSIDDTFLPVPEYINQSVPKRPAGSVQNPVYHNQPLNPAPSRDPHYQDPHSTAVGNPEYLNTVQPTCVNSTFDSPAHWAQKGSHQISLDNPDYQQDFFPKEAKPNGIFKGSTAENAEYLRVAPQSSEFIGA
T13 sequence (P00533 25-1210 D761Y): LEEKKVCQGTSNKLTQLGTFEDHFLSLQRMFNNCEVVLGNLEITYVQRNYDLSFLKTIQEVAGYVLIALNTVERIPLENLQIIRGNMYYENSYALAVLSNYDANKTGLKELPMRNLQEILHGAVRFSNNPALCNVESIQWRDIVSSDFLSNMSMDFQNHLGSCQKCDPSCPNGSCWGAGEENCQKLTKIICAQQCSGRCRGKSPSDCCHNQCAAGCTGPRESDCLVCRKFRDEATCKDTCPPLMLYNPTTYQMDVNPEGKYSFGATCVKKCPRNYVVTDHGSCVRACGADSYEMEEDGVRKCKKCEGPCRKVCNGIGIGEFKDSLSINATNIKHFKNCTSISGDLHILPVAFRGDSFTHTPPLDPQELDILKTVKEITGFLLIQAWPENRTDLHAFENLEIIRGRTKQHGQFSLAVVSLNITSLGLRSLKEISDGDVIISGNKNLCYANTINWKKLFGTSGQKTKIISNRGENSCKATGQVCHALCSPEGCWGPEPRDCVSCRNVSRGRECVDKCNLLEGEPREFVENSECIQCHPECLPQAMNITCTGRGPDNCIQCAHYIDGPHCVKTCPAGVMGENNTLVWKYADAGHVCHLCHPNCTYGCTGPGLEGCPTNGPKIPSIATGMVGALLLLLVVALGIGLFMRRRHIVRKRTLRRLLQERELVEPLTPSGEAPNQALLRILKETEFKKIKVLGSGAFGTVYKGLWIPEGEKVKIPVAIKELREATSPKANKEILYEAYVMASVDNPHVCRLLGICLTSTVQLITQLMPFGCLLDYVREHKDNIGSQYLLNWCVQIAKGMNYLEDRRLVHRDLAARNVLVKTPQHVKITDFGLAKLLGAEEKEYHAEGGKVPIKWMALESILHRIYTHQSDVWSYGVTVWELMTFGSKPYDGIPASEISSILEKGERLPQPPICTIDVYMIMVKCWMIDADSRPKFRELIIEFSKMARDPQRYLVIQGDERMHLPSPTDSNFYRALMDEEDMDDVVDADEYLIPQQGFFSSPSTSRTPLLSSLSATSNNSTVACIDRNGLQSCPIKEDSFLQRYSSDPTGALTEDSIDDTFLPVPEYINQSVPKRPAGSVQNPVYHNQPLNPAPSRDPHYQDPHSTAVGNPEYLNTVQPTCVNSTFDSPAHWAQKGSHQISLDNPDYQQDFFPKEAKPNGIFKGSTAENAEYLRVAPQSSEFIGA
T4 sequence (P00533 25-1210 G719S): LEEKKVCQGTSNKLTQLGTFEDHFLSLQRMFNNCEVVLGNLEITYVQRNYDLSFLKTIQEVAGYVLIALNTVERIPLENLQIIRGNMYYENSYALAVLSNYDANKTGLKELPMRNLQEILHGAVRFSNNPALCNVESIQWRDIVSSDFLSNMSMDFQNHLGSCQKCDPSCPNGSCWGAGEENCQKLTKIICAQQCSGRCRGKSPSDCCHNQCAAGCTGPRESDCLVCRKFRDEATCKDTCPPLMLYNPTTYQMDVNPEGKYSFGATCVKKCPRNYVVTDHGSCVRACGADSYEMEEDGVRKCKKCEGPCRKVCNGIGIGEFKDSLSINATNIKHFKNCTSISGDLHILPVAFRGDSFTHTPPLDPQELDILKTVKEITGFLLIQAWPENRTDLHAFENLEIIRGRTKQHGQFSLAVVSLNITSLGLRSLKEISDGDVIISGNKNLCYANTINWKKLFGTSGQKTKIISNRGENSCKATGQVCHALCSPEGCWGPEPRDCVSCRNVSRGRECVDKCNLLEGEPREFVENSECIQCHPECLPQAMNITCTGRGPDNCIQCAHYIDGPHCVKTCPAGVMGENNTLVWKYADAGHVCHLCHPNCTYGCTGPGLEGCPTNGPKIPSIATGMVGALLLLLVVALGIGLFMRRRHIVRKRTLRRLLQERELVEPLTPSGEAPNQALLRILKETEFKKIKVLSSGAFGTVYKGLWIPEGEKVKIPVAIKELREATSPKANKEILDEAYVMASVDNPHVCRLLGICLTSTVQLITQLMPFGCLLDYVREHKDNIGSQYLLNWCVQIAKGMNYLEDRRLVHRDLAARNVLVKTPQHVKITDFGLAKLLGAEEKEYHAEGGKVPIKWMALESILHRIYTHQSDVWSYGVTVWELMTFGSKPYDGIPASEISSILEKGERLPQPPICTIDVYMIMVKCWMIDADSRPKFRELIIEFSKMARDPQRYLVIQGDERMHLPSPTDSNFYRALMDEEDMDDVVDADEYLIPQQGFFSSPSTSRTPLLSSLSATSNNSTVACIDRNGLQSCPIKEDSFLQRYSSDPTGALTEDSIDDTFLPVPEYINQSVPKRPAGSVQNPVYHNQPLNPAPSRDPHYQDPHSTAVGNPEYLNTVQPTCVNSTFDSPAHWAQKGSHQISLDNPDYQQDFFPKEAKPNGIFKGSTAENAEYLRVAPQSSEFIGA
T7 sequence (P00533 25-1210 L747S): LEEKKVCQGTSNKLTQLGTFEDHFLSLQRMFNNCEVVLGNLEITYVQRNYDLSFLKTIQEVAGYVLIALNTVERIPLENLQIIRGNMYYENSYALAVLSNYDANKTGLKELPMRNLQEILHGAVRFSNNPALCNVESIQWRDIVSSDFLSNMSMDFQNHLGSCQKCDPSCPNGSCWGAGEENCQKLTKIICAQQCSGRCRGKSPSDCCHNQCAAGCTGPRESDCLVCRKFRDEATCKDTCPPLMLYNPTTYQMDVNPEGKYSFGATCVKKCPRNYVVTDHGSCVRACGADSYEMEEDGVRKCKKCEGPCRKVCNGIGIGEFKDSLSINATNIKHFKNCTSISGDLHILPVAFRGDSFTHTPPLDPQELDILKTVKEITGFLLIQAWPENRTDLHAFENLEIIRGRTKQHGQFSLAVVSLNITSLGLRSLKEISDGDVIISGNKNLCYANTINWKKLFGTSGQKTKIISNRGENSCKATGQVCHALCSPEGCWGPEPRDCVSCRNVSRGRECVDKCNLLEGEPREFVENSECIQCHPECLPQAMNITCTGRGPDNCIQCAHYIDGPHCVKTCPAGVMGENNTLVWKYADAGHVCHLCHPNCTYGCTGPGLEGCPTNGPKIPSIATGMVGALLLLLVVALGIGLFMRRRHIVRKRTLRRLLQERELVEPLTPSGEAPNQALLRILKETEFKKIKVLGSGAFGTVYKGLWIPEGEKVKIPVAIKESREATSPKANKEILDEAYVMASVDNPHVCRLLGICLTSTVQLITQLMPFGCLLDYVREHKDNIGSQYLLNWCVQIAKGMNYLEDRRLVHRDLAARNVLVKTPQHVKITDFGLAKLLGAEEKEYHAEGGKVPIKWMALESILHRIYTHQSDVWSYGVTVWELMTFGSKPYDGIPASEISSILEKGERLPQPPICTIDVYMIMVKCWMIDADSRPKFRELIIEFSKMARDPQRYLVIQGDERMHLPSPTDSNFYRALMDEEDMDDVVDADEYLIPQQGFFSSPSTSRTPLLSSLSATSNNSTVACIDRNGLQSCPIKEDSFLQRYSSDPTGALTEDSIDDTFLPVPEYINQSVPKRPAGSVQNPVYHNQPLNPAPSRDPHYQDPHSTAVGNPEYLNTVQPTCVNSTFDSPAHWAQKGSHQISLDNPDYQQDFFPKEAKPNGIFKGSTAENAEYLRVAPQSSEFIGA
T12 sequence (P00533 with tags, fused parts or gaps DEL746-750/C797A limits assumed): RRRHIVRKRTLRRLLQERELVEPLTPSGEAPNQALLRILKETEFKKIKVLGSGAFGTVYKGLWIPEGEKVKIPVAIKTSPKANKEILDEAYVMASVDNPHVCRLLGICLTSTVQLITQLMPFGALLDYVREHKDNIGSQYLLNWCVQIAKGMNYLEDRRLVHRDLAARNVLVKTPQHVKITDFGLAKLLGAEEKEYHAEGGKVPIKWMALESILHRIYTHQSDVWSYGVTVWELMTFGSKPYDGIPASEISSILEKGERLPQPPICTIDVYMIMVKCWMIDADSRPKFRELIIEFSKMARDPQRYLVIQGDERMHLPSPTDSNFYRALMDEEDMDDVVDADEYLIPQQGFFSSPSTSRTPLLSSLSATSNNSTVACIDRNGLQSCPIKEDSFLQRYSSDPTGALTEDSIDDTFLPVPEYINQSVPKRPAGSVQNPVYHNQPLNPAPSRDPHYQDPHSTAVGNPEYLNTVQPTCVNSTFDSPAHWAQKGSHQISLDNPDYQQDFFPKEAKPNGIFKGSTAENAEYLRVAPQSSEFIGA

Row | Structure (SMILES) | GI50 [3] | GI50 [5] | further results
1 | COc1cc(Nc2cc(N3OCC[C@@H]3c3ccccc3)ncn2)ccc1N1CCC(N2CCN(C)CC2)CC1 [Example 4, (R)—N-(3-methoxy-4-(4-(4-methylpiperazin-1-yl)piperidin-1-yl)phenyl)-6-(3-phenylisoxazolidin-2-yl)pyrimidin-4-amine] | < 50 nM | < 50 nM | GI50 [1]: < 50 nM; GI50 [2]: < 50 nM; GI50 [4]: 50 to 500 nM
2 | CN(C)C1CCN(C2CCN(c3ccc(Nc4cc(N5OCC[C@@H]5c5ccccc5)ncn4)cc3)CC2)CC1 [Example 84, (R)—N,N-dimethyl-1′-(4-((6-(3-phenylisoxazolidin-2-yl)pyrimidin-4-yl)amino)phenyl)-[1,4′-bipiperidin]-4-amine] | < 50 nM | < 50 nM | 
3 | COc1cc(Nc2cc(N3OCC[C@@H]3c3ccccc3)ncn2)ccc1N1CCN(C2CCN(C)CC2)CC1 [Example 102, (R)—N-(3-methoxy-4-(4-(1-methylpiperidin-4-yl)piperazin-1-yl)phenyl)-6-(3-phenylisoxazolidin-2-yl)pyrimidin-4-amine] | < 50 nM | < 50 nM | 
4 | COc1cc(Nc2cc(N3OCC[C@@H]3c3cccc(F)c3F)ncn2)ccc1N1CCC(N2CCN(C)CC2)CC1 [Example 128, (R)-6-(3-(2,3-difluorophenyl)isoxazolidin-2-yl)-N-(3-methoxy-4-(4-(4-methylpiperazin-1-yl)piperidin-1-yl)phenyl)pyrimidin-4-amine] | < 50 nM | < 50 nM | 
5 | COc1cc(N2CCC(N3CCN(C)CC3)CC2)ccc1Nc1cc(N2OCC[C@@H]2c2ccc(F)cc2F)ncn1 [Example 34, (R)-6-(3-(2,4-difluorophenyl)isoxazolidin-2-yl)-N-(2-methoxy-4-(4-(4-methylpiperazin-1-yl)piperidin-1-yl)phenyl)pyrimidin-4-amine] | < 50 nM |  | IC50 [6]: < 0.5 nM; GI50 [7]: 50 to 500 nM; IC50 [8]: 5.3 nM; IC50 [9]: 0.5 nM; IC50 [10]: 2.7 nM; IC50 [11]: 78.1 nM; GI50 [12]: < 50 nM; IC50 [13]: < 0.5 nM; IC50 [14]: < 0.5 nM; IC50 [15]: 49.8 nM; GI50 [1]: < 50 nM; GI50 [2]: 50 to 500 nM; IC50 [16]: < 0.5 nM; IC50 [17]: 60.5 nM; IC50 [18]: 8.7 nM; IC50 [19]: 3.5 nM; IC50 [20]: < 0.5 nM; GI50 [4]: 50 to 500 nM; IC50 [21]: 41.7 nM; IC50 [22]: 8 nM
6 | Cc1cc(Nc2cc(N3OCC[C@@H]3c3ccc(F)cc3F)ncn2)ccc1N1CCC(N2CCN(C)CC2)CC1 [Example 104, (R)-6-(3-(2,4-difluorophenyl)isoxazolidin-2-yl)-N-(3-methyl-4-(4-(4-methylpiperazin-1-yl)piperidin-1-yl)phenyl)pyrimidin-4-amine] | < 50 nM | < 50 nM | 
7 | COc1cc(N2CCC(N3CCC(N(C)C)CC3)CC2)c(-c2cnn(C)c2)cc1Nc1cc(N2OCC[C@@H]2c2cc(F)cc(F)c2)ncn1 [Example 10, (R)-1′-(4-((6-(3-(3,5-difluorophenyl)isoxazolidin-2-yl)pyrimidin-4-yl)amino)-5-methoxy-2-(1-methyl-1H-pyrazol-4-yl)phenyl)-N,N-dimethyl-[1,4′-bipiperidin]-4-amine] | 50 to 500 nM | 50 to 500 nM | 
8 | COc1cc(N2CCC(N3CCN(C)CC3)CC2)c(-c2cnn(C)c2)cc1Nc1cc(N2OCC[C@@H]2c2cc(F)cc(F)c2)ncn1 [Example 8, (R)-6-(3-(3,5-difluorophenyl)isoxazolidin-2-yl)-N-(2-methoxy-5-(1-methyl-1H-pyrazol-4-yl)-4-(4-(4-methylpiperazin-1-yl)piperidin-1-yl)phenyl)pyrimidin-4-amine] | < 50 nM | < 50 nM | 
9 | COc1cc(N2CCC(N3CCN(C)CC3)CC2)ccc1Nc1cc(N2OCC[C@@H]2c2ccc(Cl)c(F)c2)ncn1 [Example 129, (R)-6-(3-(4-chloro-3-fluorophenyl)isoxazolidin-2-yl)-N-(2-methoxy-4-(4-(4-methylpiperazin-1-yl)piperidin-1-yl)phenyl)pyrimidin-4-amine] | < 50 nM | < 50 nM | 
10 | COc1cc(N2CCC(N3CCN(C)CC3)CC2)ccc1Nc1cc(N2OCC[C@@H]2c2ccccc2)ncn1 [Example 5, (R)—N-(2-methoxy-4-(4-(4-methylpiperazin-1-yl)piperidin-1-yl)phenyl)-6-(3-phenylisoxazolidin-2-yl)pyrimidin-4-amine] | < 50 nM | < 50 nM | 
11 | COc1cc(N2CCC(N3CCN(C)CC3)CC2)c(Cl)cc1Nc1cc(N2OCC[C@@H]2c2ccccc2)ncn1 [Example 132, (R)—N-(5-chloro-2-methoxy-4-(4-(4-methylpiperazin-1-yl)piperidin-1-yl)phenyl)-6-(3-phenylisoxazolidin-2-yl)pyrimidin-4-amine] | < 50 nM | < 50 nM | 
12 | CS(=O)(=O)c1cc(Nc2cc(N3OCC[C@@H]3c3cc(F)cc(F)c3)ncn2)cc(N2CCC(N3CCOCC3)CC2)c1 [Example 12, (R)-6-(3-(3,5-difluorophenyl)isoxazolidin-2-yl)-N-(3-(methylsulfonyl)-5-(4-morpholinopiperidin-1-yl)phenyl)pyrimidin-4-amine] | 50 to 500 nM | 50 to 500 nM | 
13 | COc1cc(N2CCC(N3CCN(C4CC4)CC3)CC2)ccc1Nc1cc(N2OCC[C@@H]2c2cc(F)cc(F)c2)ncn1 [Example 6, (R)—N-(4-(4-(4-cyclopropylpiperazin-1-yl)piperidin-1-yl)-2-methoxyphenyl)-6-(3-(3,5-difluorophenyl)isoxazolidin-2-yl)pyrimidin-4-amine] | 50 to 500 nM | 50 to 500 nM | 
